Reference: patent US9957232B2, “4-[4-({[4-chloro-3-(trifluoromethyl)phenyl]carbamoyl}amino)-3-fluorophenoxy]-N-methylpyridine-2-carboxamide monohydrate” (BAYER HEALTHCARE LLC, priority 2006, dated 2018)

Assay: stability in the manufacture of pharmaceutical compositions
Type: physicochemical
Settings: monohydrate form; qualitative statement, no test described

- stability in the manufacture of pharmaceutical compositions: high stability
Structure (SMILES): CNC(=O)c1cc(Oc2ccc(NC(=O)Nc3ccc(Cl)c(C(F)(F)F)c3)c(F)c2)ccn1 [compound of the formula (II), 4-[4-({[4-chloro-3-(trifluoromethyl)phenyl]carbamoyl}amino)-3-fluorophenoxy]-N-methylpyridine-2-carboxamide monohydrate]
